Source: PubChem BioAssay AID330 (DTP/NCI, 2004)
Where “and” joins values, the source holds several entries; their conditions need not be identical. Equal entries are not always repeated. Toxic doses and inconclusive results are not listed.

Test system: P388 leukemia ip, CD2F1 mice, survival T/C
Test: NCI In Vivo Anticancer Drug Screen. Data for tumor model P388 Leukemia (intraperitoneal) in CD2F1 (CDF1) mice
Conditions: endpoint: median survival time, higher = longer survival
How it was run: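 Mice carrying the transplanted tumor received test compound or vehicle. Survival was recorded in each group, and the value is the treated-group measurement divided by that of the vehicle-treated control group.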

[1] = dose: 60.0 mg/kg/injection, schedule: Q01DX005 (ip), vehicle: saline with Tween-80
[2] = dose: 120.0 mg/kg/injection, schedule: Q01DX005 (ip), vehicle: saline with Tween-80
[3] = dose: 240.0 mg/kg/injection, schedule: Q01DX005 (ip), vehicle: saline with Tween-80
[4] = dose: 50.0 mg/kg/injection, schedule: Q01DX009 (ip), vehicle: Klucel (hydroxypropylcellulose) (HPC)
[5] = dose: 100.0 mg/kg/injection, schedule: Q01DX009 (ip), vehicle: Klucel (hydroxypropylcellulose) (HPC)
[6] = dose: 200.0 mg/kg/injection, schedule: Q01DX009 (ip), vehicle: Klucel (hydroxypropylcellulose) (HPC)
[7] = dose: 100.0 mg/kg/injection, schedule: Q01DX009 (ip), vehicle: saline with Tween-80
[8] = dose: 100.0 mg/kg/injection, schedule: Q04DX002 (ip), vehicle: saline with Tween-80
[9] = dose: 200.0 mg/kg/injection, schedule: Q04DX002 (ip), vehicle: saline with Tween-80
[10] = dose: 400.0 mg/kg/injection, schedule: Q04DX002 (ip), vehicle: saline with Tween-80
[11] = dose: 12.5 mg/kg/injection, schedule: Q01DX005 (ip), vehicle: Klucel (hydroxypropylcellulose) (HPC)
[12] = dose: 25.0 mg/kg/injection, schedule: Q01DX005 (ip), vehicle: Klucel (hydroxypropylcellulose) (HPC)
[13] = dose: 50.0 mg/kg/injection, schedule: Q01DX005 (ip), vehicle: Klucel (hydroxypropylcellulose) (HPC)
[14] = dose: 100.0 mg/kg/injection, schedule: Q01DX005 (ip), vehicle: Klucel (hydroxypropylcellulose) (HPC)
[15] = dose: 200.0 mg/kg/injection, schedule: Q01DX005 (ip), vehicle: Klucel (hydroxypropylcellulose) (HPC)
[16] = dose: 50.0 mg/kg/injection, schedule: Q01DX005 (ip), vehicle: saline with Tween-80
[17] = dose: 100.0 mg/kg/injection, schedule: Q01DX005 (ip), vehicle: saline with Tween-80
[18] = dose: 200.0 mg/kg/injection, schedule: Q01DX005 (ip), vehicle: saline with Tween-80
[19] = dose: 25.0 mg/kg/injection, schedule: Q01DX005 (ip), vehicle: saline with Tween-80
[20] = dose: 50.0 mg/kg/injection, schedule: Q04DX002 (ip), vehicle: saline with Tween-80
[21] = dose: 100.0 mg/kg/injection, schedule: Q01DX001 (ip), vehicle: saline with Tween-80
[22] = dose: 200.0 mg/kg/injection, schedule: Q01DX001 (ip), vehicle: saline with Tween-80

Cn1c(=S)[nH]c2sc3c(c2c1=O)CCC3
T/C [1]: 96 % of control
T/C [2]: 93 % of control
T/C [3]: 89 % of control

COc1ccc(OC)c(CCN2C(=O)c3cccc4c([N+](=O)[O-])ccc(c34)C2=O)c1
T/C [4]: 98 % of control
T/C [5]: 106 % of control
T/C [6]: 113 % of control

Oc1ccccc1N=Cc1cccs1
T/C [4]: 109 % of control
T/C [5]: 105 % of control
T/C [6]: 124 % of control

CCOC(=O)c1c(C#N)c2cnn(-c3ccccc3)c2n2cccc12
T/C (dose: 15.0 mg/kg/injection, schedule: Q01DX005 (ip), vehicle: saline with Tween-80): 98 % of control
T/C (dose: 30.0 mg/kg/injection, schedule: Q01DX005 (ip), vehicle: saline with Tween-80): 96 % of control
T/C [1]: 86 % of control and 91 % of control

O=C(Nc1ccccc1C(=O)c1ccccc1)Nc1ccc(F)cc1[N+](=O)[O-]
T/C (dose: 50.0 mg/kg/injection, schedule: Q01DX009 (ip), vehicle: saline with Tween-80): 97 % of control
T/C [7]: 109 % of control
T/C (dose: 200.0 mg/kg/injection, schedule: Q01DX009 (ip), vehicle: saline with Tween-80): 94 % of control

CCOC(=O)c1cc2c(cc1O)C1CC=C(C)[C@@H]3CCO[C@](OC)(C2)[C@]13C(=O)OC (stereo partly drawn)
T/C (dose: 6.25 mg/kg/injection, schedule: Q01DX001 (ip), vehicle: saline with Tween-80): 106 % of control
T/C (dose: 12.5 mg/kg/injection, schedule: Q01DX001 (ip), vehicle: saline with Tween-80): 101 % of control
T/C (dose: 25.0 mg/kg/injection, schedule: Q01DX001 (ip), vehicle: saline with Tween-80): 111 % of control
T/C (dose: 50.0 mg/kg/injection, schedule: Q01DX001 (ip), vehicle: saline with Tween-80): 100 % of control

COc1cc(C(=O)n2c(=O)oc(=O)c3cc([N+](=O)[O-])ccc32)cc(OC)c1OC
T/C (dose: 60.0 mg/kg/injection, schedule: Q01DX005 (ip), vehicle: saline): 101 % of control
T/C (dose: 120.0 mg/kg/injection, schedule: Q01DX005 (ip), vehicle: saline): 94 % of control
T/C (dose: 240.0 mg/kg/injection, schedule: Q01DX005 (ip), vehicle: saline): 89 % of control

CC1Cc2ccc(OCCN(C)C)cc2C1O (stereo not drawn)
T/C (dose: 50.0 mg/kg/injection, schedule: Q01DX005 (ip), vehicle: saline): 104 % of control
T/C (dose: 100.0 mg/kg/injection, schedule: Q01DX005 (ip), vehicle: saline): 102 % of control
T/C (dose: 200.0 mg/kg/injection, schedule: Q01DX005 (ip), vehicle: saline): 104 % of control

COc1ccc(C2CCc3cc4c(cc3C2=O)OCO4)cc1OC (stereo not drawn)
T/C (dose: 200.0 mg/kg/injection, schedule: Q04DX003 (ip), vehicle: saline with Tween-80): 90 % of control

C1=C(c2ccc(OCc3ccccc3)c(OCc3ccccc3)c2)CC2CCCCC2C1 (stereo not drawn)
T/C [8]: 93 % of control
T/C [9]: 93 % of control
T/C [10]: 111 % of control

N#CC1CCCC(C#N)N1 (stereo not drawn)
T/C (dose: 6.25 mg/kg/injection, schedule: Q01DX005 (ip), vehicle: saline): 100 % of control
T/C (dose: 12.5 mg/kg/injection, schedule: Q01DX005 (ip), vehicle: saline): 88 % of control
T/C (dose: 25.0 mg/kg/injection, schedule: Q01DX005 (ip), vehicle: saline): 100 % of control

O=C1/C(=C/c2ccc(Cl)cc2)SC(=S)N1C1CC1
T/C (dose: 6.25 mg/kg/injection, schedule: Q01DX005 (ip), vehicle: Klucel (hydroxypropylcellulose) (HPC)): 91 % of control
T/C [11]: 96 % of control
T/C [12]: 95 % of control
T/C [13]: 89 % of control

O=C1NC(=O)C(CCCCCl)N1 (stereo not drawn)
T/C [13]: 100 % of control
T/C [14]: 102 % of control
T/C [15]: 98 % of control

CC(C)(C)C(=Nc1ccccc1)OC(c1ccccc1)(C(F)(F)F)C(F)(F)F
T/C (dose: 100.0 mg/kg/injection, schedule: Q04DX002 (ip), vehicle: Klucel (hydroxypropylcellulose) (HPC)): 105 % of control
T/C (dose: 200.0 mg/kg/injection, schedule: Q04DX002 (ip), vehicle: Klucel (hydroxypropylcellulose) (HPC)): 101 % of control
T/C (dose: 400.0 mg/kg/injection, schedule: Q04DX002 (ip), vehicle: Klucel (hydroxypropylcellulose) (HPC)): 90 % of control

OCC1=C(CO)CC2=C(CC=CC2)C1
T/C [13]: 100 % of control
T/C [14]: 99 % of control
T/C [15]: 97 % of control

CCOC(=O)NN(C(=O)OCC)C(C(C)=O)C(C)=NCCN=C(C)C(C(C)=O)N(NC(=O)OCC)C(=O)OCC.[Cu] (stereo not drawn)
T/C [11]: 100 % of control
T/C [12]: 105 % of control
T/C [13]: 100 % of control and 107 % of control

C=CCn1c(=O)n(CC=C)c(=O)n(CCOC(=O)COc2ccc(Cl)cc2Cl)c1=O
T/C (dose: 50.0 mg/kg/injection, schedule: Q01DX009 (ip), vehicle: saline): 108 % of control
T/C (dose: 100.0 mg/kg/injection, schedule: Q01DX009 (ip), vehicle: saline): 112 % of control
T/C (dose: 200.0 mg/kg/injection, schedule: Q01DX009 (ip), vehicle: saline): 94 % of control

O=C(O)c1cccc2c1Oc1c(cccc1C(=O)O)S2
T/C [16]: 98 % of control
T/C [17]: 107 % of control
T/C [18]: 108 % of control

OC1(c2ccccc2)c2ccccc2NC2=NCCN21 (stereo not drawn)
T/C [19]: 105 % of control
T/C [16]: 96 % of control
T/C [17]: 104 % of control
T/C [18]: 97 % of control

CN1C(=O)CC2C(=O)N(Cc3ccccc3)C(=O)C2C1=O (stereo not drawn)
T/C [16]: 101 % of control
T/C [17]: 101 % of control
T/C [18]: 96 % of control

CCOC(=Nc1ccc(OCC)cc1)SC(c1ccccc1)(c1ccccc1)c1ccccc1
T/C [16]: 104 % of control
T/C [17]: 98 % of control
T/C [18]: 91 % of control

CCCCN=C(N)NN=C(c1ccc(C)cc1)c1ccc(C)cc1
T/C (dose: 25.0 mg/kg/injection, schedule: Q04DX002 (ip), vehicle: saline with Tween-80): 102 % of control
T/C [20]: 99 % of control

CCOc1ccncc1[N+](=O)[O-]
T/C (dose: 25.0 mg/kg/injection, schedule: Q01DX009 (ip), vehicle: saline sonified): 100 % of control
T/C (dose: 50.0 mg/kg/injection, schedule: Q01DX009 (ip), vehicle: saline sonified): 109 % of control
T/C [1]: 101 % of control
T/C (dose: 100.0 mg/kg/injection, schedule: Q01DX009 (ip), vehicle: saline sonified): 90 % of control
T/C [2]: 93 % of control
T/C [3]: 95 % of control

O=C(CCl)Nc1nc(=O)[nH]s1
T/C [4]: 107 % of control
T/C [5]: 107 % of control

Clc1cccc(Cl)c1C(Nc1nncs1)Nc1nncs1
T/C [20]: 124 % of control
T/C [9]: 162 % of control and 174 % of control
T/C [10]: 186 % of control and 192 % of control

CC1(C)Cc2oc(=Nc3ccccc3)n(-c3ccccc3)c(=O)c2C1
T/C [4]: 105 % of control
T/C [5]: 114 % of control
T/C [6]: 102 % of control

O=C1CN(c2ccccc2)C(=O)CN1/N=C/c1ccc[nH]1
T/C (dose: 6.25 mg/kg/injection, schedule: Q01DX005 (ip), vehicle: saline with Tween-80): 95 % of control
T/C (dose: 12.5 mg/kg/injection, schedule: Q01DX005 (ip), vehicle: saline with Tween-80): 100 % of control
T/C [19]: 97 % of control

CC(=O)/C=N/OC(=O)c1ccccc1
T/C [8]: 104 % of control
T/C [9]: 99 % of control

COCc1ccc(C(N)C(=O)O)cc1 (stereo not drawn)
T/C [21]: 92 % of control
T/C [22]: 108 % of control

CC(C)N(c1ccc(O)c2ccccc12)C(C)C
T/C [21]: 96 % of control
T/C [22]: 100 % of control
T/C (dose: 400.0 mg/kg/injection, schedule: Q01DX001 (ip), vehicle: saline with Tween-80): 95 % of control

O=S(=O)(C1CC1c1ccccc1)C1CC1c1ccc(F)cc1 (stereo not drawn)
T/C [16]: 100 % of control
T/C [17]: 95 % of control
T/C [18]: 101 % of control

CCNCc1c(C)[nH]c2ccccc2c1=O
T/C (dose: 3.12 mg/kg/injection, schedule: Q01DX009 (ip), vehicle: saline with Tween-80): 100 % of control
T/C (dose: 6.25 mg/kg/injection, schedule: Q01DX009 (ip), vehicle: saline with Tween-80): 101 % of control
T/C (dose: 12.5 mg/kg/injection, schedule: Q01DX009 (ip), vehicle: saline with Tween-80): 102 % of control
T/C (dose: 25.0 mg/kg/injection, schedule: Q01DX009 (ip), vehicle: saline with Tween-80): 105 % of control
T/C [7]: 91 % of control
